Experimental data taken from US20040072368A1, “Lipoprotein receptor” (priority 2002, published 2004).

What was measured:
HepG2 cells [1] = experiment: TG-HDL2 internalisation assay; type: cell-based, human; conditions: for effect on internalisation of 125I-TG-HDL2: 75 μg/ml 125I-TG-HDL2, 10 min at 37° C., 10 μg/ml free-apoA-I, 100 nM ADP, 100 nM ATP, 0.2 U/ml apyrase, 100 nM EGF
Protocol: (§1) Panel 1, 2 and 3. TG-HDL2 and LDL internalization by HepG2 cells. Cells are incubated for 10 min at 37° C. with 75 μg/ml of ^125I-TG-HDL2 (panels 1 and 3), TG-HDL2 labelled with ^3H-cholesteryl ester (panel 1 “chol”) or ^1251-LDL (panel 2). Alternatively, 10 μg/ml free-apoA-I (A, G), 100 nM ADP (B, H), both free-apoA-I and ADP at the same concentrations as above (C), 100 nM ATP (D), 0.2 U/ml apyrase (E), 100 nM EGF (F), or increasing concentrations of 2MeS-ADP (▪) and ATPγS (□) (panel 3) are added to the incubation medium. Results are expressed as the percentage of stimulation related to the value of internalisation obtained without addition of any compound (corresponding to a value of 400 ng TG-HDL2/mg of cell protein). The same experiments are performed on IHH cells with similar results (data not shown).
HepG2 cells are incubated for 10 min at 37° C. in DMEM pH 6.6 with 75 μg/ml of ^125I-TGHDL 2 and in the presence of increasing concentrations of IF, without (panel A) or with (panel B) free-apoA-I (10 μg/ml). Results are expressed as the percentage of stimulation as referred to the value of internalisation obtained without addition of any compound (corresponding to a value of 400 ng TG-HDL2/mg of cell protein).
Cells are washed three times and pre-incubated for 30 min at 37° C. in serum free DMEM. ^125I triglyceride rich-HDL2 (75 μg/ml) are added on the cells and incubated at 37° C. for various time. Depending on the experiment, free apolipoprotein A-I (10 μg/ml) or other compounds, are added to the incubation medium. At each incubation time, cells are washed with cold DMEM and the release of radioactive ligands associated to the cell surface is performed at 4° C., for 90 min in DMEM. The radioactivity internalised into the cells and the protein content is determined as in the competition assays. Non-specific internalisation is analysed in the presence of an excess of 600 μg/ml of HDL3. Results are expressed as the percentage of stimulation related to the value of internalisation obtained without addition of any compound. The same method is used for the measurement of LDL internalisation.

HepG2 cells [2] = experiment: LDL internalisation assay; type: cell-based, human; conditions: 10 μg/ml free-apoA-I or 100 nM ADP, 10 min at 37° C.
Protocol: as §1
Cells are washed three times and pre-incubated for 30 min at 37° C. in serum free DMEM. ^125I triglyceride rich-HDL2 (75 μg/ml) are added on the cells and incubated at 37° C. for various time. […] The radioactivity internalised into the cells and the protein content is determined as in the competition assays. Non-specific internalisation is analysed in the presence of an excess of 600 μg/ml of HDL3. Results are expressed as the percentage of stimulation related to the value of internalisation obtained without addition of any compound. […]

EGF receptor = EGF receptor internalisation by flow cytometry; type: cell-based, human; conditions: HepG2, 10 min pre-incubation, 10 μg/ml free-apoA-I or 100 nM ADP
Protocol: Panel 4. Internalisation of EGF receptor by HepG2 cells. Cells are pre-incubated for 10 min in serum-free medium with (J) or without (K) […] EGF, or with 10 μg/ml free-apoA-I (L), 100 nM ADP (M). The amount of EGF receptor is measured by Flow Cytometry using anti-EGF receptor antibody. As a control experiment for the efficacy of EGF receptor antibody, isotypic IgG are used (I). Results are expressed as the mean relative cell fluorescence and receptor internalisation is related to lower fluorescence.
(§2) For analysis of the cell surface EGF receptor, HepG2 cells are preincubated in medium with or without 20 nM EGF for 10 min at 37° C. For flow cytometry analysis, HepG2 and CHO cells are detached by incubation with Ca2+, Mg2+free PBS containing 2 mM EDTA, pH 7.4, fixed in 3% paraformaldehyde and pelleted in a microfuge. Cells are incubated at 20° C. for 1 h in PBS, pH 7.4 containing 1% BSA with either mouse monoclonal antibodies against the human β-subunit of ATP synthase, the human cytochrome oxidase subunit I, the human EGF receptor or against isotypic control IgG. Cells are washed in PBS/BSA 1% and incubated at 20° C. for 30 min with goat anti-rabbit IgG conjugated to fluorescein isothiocyanate. After a final wash, cells are pelleted and resuspended in PBS/BSA 1% at a density of 1×10^6 cells/ml. The mean relative fluorescence after excitation at a wavelength of 488 nm is determined for each sample on a Coulter XL 4C flow cytometer and analysed with CELLQUEST software (Becton-Dickenson).

HepG2 cells and IHH = experiment: Cholesterol efflux; type: cell-based, human; conditions: for influence on cholesterol efflux: range of 1 nM to 10 μM
[3] = target: T1, β-subunit of ATP synthase (Homo sapiens, UniProt P06576); experiment: Flow cytometry detection of cell surface β-subunit of ATP synthase; type: cell-based; conditions: excess of free-apoA-I (100 nM), HepG2 cells
T1 construct: endogenous in cells; host or cells: HepG2 (ATCC)
Protocol: HepG2 and CHO cells were analyzed by fluorescence-assisted flow cytometry. Plots are shown for HepG2 (panel A) and CHO (panel C) where solid lines represent cells incubated with an anti b-subunit of ATP synthase mouse monoclonal IgG2a in absence (e) or presence (d) of 100 nM apoA-I, 250 μg/ml of FI-ATPase (c) or incubated with an isotypic control mouse IgG2a (a) and […] anti cytochrome oxidase subunit I mouse monoclonal IgG2a (b, dashed lines). In panel B and D, the histograms are expressed as the mean relative fluorescence of the curves a to e on HepG2 (B) or CHO cells (D).
as §2, with “Cells are washed in PBS/BSA 1% and incubated at 20° C. for 30 min with goat anti-rabbit IgG conjugated to fluorescein isothiocyanate. After a final wash, cells are pelleted and resuspended in PBS/BSA 1% at a density of 1×10^6 cells/ml.” left out

HepG2 cells [4] = experiment: Competitive inhibition of binding of 125I-labeled apoA-I to HepG2 cells; set-up: species or system human; conditions: 1 μg/ml 125I-apoA-I, no competitor, 2 h at 4° C.
Protocol: HepG2 cells (panel A) and submitochondrial particles (panel B) are incubated for 2 h at 4° C. in the presence of 1 μg/ml ^125I-labeled apoA-1 and 5 μg/ml ^125I-labeled HDL3 respectively, in the presence of increasing concentrations of either unlabeled apoA-I (◯, panel A), unlabeled HDL3 (●, panel B), anti β-subunit of ATP synthase mouse monoclonal IgG2a (□) or purified isotype mouse IgG2a (♦). The 100% specific binding corresponds to 25,5 ng apoA-I bound per mg of cell proteins (panel A) and 2050 ng HDL3 protein bound per mg of mitochondrial proteins (panel B). Fab fragments from anti-β-subunit of ATP synthase are also used as competitors and results are identical to anti β-subunit IgG2a (data not shown). The results are representative of three independent series of experiments.
The competition experiments are performed at 4° C. for 2 h as previously described (6). […] Cells are washed twice with ice-cold PBS (maximum washing time is 15 s), lysed with 500 μl of 0.1 N NaOH, and the NaOH digest is used for radioactivity measurement and protein determination. […] Filters are used for radioactivity measurements. […] Data are expressed as the percentage of the specific binding measured in the absence of competitor versus the log of competitor concentration (in nM).

[5] = target: T2, cell surface ATP synthase (Homo sapiens, UniProt P06576); experiment: Cell surface ADP generation assay (ATP hydrolysis), HPLC/TLC; type: cell-based; conditions: HepG2
T2 construct: endogenous in cells; host or cells: HepG2
Protocol: (§3) ^32Pi and ADP (panels A and B) or [α-32P] ATP (panels C, D, E and F) are added to the HepG2 cell medium as described in Experimental Procedures, and the cells are incubated for 10 min at 37° C. with 10 μg/ml apoA-I (panels B and D), 100 nM IF1 (panel E), or both IF1 […] and apoA-I at the same concentrations as above (panel F). Control experiments are performed with neither apo AI nor IF1 added into the cell medium (panel A and C). Supernatants are recovered and analysed by HPLCs.
(§4) Confluent HepG2 in 6-well plates are washed in DMEM, then incubated at 37° C. for 10 min in DMEM pH 6.6 with 0.1 μCi [α-32P] ATP for ADP generation assay, or with 0.1 μCi 32Pi and ADP (100 nM final) for ATP generation assay. Depending on the experiment, IF1 (100 nM final) or apoA-I (10 μg/ml final) are added in the reaction mixture. Supernatants are removed and analysed using two different systems: 1) by HPLC coupled to a radioactivity detector on a Whatman Partisphere 5 SAX column (Whatman International Ltd., UK) as described previously (13); calibration is done with radiolabelled nucleotides. 2) by thin layer chromatography in the solvent NaCl 2.4%/NH4OH/H2O/MeOH (12.5/15/27.5/50, v/v); radioactive spots are counted by liquid scintillation.

[6] = target: T2, cell surface ATP synthase; experiment: Cell surface ATP generation assay (ATP synthesis), HPLC/TLC; type: cell-based; conditions: 10 μg/ml free-apoA-I, 10 min, HepG2
Protocol: as §3, §4

rat liver = experiment: TG-HDL2 internalisation by perfused rat liver (in situ); type: in vivo
Protocol: The liver from male Whistar rats (7-8 weeks old) were perfused in situ during 45 minutes at 37° C. in Ringer medium (pH 6.8) with 35 μg/ml of 1251-TG-HDL2 with or without 1 μM IF1. Livers were then extensively washed at 4° C. and radioactivity counted. n=7 per group. Values represent means±SEM, with p<0.02 (unpaired t-test). Control fluorescence-assisted flow cytometry experiments have shown the presence of both the Band a-chain ATP synthase at the cell surface of isolated rat hepatocytes (not shown).

T2 sequence (P06576 48-529): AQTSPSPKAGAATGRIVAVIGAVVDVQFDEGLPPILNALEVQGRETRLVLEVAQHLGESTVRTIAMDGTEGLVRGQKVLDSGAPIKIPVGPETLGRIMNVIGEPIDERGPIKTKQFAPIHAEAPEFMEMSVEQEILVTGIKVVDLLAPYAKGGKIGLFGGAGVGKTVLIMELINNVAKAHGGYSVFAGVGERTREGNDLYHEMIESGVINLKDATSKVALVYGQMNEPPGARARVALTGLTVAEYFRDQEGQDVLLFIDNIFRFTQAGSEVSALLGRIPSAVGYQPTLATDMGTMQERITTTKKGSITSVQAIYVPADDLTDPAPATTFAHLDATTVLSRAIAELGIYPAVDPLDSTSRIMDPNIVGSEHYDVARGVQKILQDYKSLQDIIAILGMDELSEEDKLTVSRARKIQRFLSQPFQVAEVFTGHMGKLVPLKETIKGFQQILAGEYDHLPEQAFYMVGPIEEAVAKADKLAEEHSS
T2 sequence (P25705 44-553 partner): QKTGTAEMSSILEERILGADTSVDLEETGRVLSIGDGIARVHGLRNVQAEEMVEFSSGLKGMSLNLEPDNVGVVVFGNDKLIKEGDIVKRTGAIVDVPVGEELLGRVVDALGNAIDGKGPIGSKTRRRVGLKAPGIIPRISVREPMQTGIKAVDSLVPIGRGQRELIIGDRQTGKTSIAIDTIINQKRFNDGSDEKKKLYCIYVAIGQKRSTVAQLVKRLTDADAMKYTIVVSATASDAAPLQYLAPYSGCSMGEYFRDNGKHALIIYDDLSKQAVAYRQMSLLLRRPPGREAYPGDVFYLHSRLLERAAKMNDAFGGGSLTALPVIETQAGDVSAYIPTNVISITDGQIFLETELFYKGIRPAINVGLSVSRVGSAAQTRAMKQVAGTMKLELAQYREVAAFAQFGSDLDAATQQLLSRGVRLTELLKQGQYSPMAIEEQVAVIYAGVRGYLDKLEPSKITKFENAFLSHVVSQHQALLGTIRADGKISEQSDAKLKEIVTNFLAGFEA
T2 sequence (P36542 26-298 partner): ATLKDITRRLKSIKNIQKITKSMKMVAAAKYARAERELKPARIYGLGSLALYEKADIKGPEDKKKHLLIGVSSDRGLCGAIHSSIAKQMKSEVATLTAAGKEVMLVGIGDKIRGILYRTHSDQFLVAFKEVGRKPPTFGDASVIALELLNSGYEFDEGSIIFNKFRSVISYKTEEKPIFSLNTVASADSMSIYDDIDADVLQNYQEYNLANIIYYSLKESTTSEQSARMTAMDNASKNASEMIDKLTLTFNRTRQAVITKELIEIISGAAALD
T2 sequence (P30049 23-168 partner): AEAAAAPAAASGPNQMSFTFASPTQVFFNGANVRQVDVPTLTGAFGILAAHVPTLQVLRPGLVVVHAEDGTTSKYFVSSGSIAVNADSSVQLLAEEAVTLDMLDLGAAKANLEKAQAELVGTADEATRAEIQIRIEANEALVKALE
T2 sequence (P56381 2-51 partner limits assumed): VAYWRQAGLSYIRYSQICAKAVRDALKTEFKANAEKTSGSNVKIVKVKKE
T1 sequence (P06576 48-529): as the sequence (P06576 48-529) above
T1 sequence (P25705 44-553 partner): as the sequence (P25705 44-553 partner) above
T1 sequence (P36542 26-298 partner): as the sequence (P36542 26-298 partner) above
T1 sequence (P30049 23-168 partner): as the sequence (P30049 23-168 partner) above
T1 sequence (P56381 2-51 partner limits assumed): as the sequence (P56381 2-51 partner limits assumed) above

Molecule: Nc1ncnc2c1ncn2[C@@H]1O[C@H](COP(=O)(O)OP(=O)(O)O)[C@@H](O)[C@H]1O [ADP, reference compound]
- effect on internalisation of 125I-TG-HDL2 (HepG2 cells [1]): stimulates
- stimulation of endocytosis of 125I-labeled LDL (HepG2 cells [2]): no stimulation
- number of EGF-R at the cell surface (EGF receptor): neither free apoA-I (FIG. 6-4L) nor ADP (FIG. 6-4M) are able to reduce
- influence on cholesterol efflux (HepG2 cells and IHH): no influence

Molecule: apyrase
- effect on internalisation of 125I-TG-HDL2 (HepG2 cells [1]): completely abolishes

Molecule: free-apoA-I: major apoprotein of HDL, single polypeptide chain of 243 amino acid residues, isolated from HDL3 by ion-exchange chromatography
- reduction of immunoreactivity of the anti β-subunit antibody [3]: more than 3 fold
- 100% specific binding (HepG2 cells [4]): 25,5 ng apoA-I bound per mg of cell proteins
- increase of [α32P]-ADP generated from [α-32P]-ATP ([5]; 10 μg/ml apoA-I, 10 min at 37° C.): up to 79%
- ATP synthesis from ADP plus 32Pi [6]: no synthesis of ATP is detected
- radioactivity internalised into the cells (125I-labeled TG-HDL2) (HepG2 cells [1]; increasing free-apoA-I from 0.1 to 20 μg/ml, HepG2 or IHH cells, preliminary experiment): increased
- stimulation of endocytosis of 125I-labeled LDL (HepG2 cells [2]): no stimulation
- number of EGF-R at the cell surface (EGF receptor): neither free apoA-I (FIG. 6-4L) nor ADP (FIG. 6-4M) are able to reduce
- stimulation of the cholesterol efflux (HepG2 cells and IHH; free-apoA-I): 2 to 2.5 fold

Molecule: IF1: natural inhibitor protein of mitochondrial F1-ATPase, inhibits the hydrolytic activity of the ATP synthase
- decrease of [α-32P]-ADP generated as compared to control ([5]; 100 nM IF1, 10 min at 37° C.): 48%
- effect on the free-apoA-I stimulation of ATP hydrolysis ([5]; 100 nM IF1 plus 10 μg/ml apoA-I, 10 min at 37° C.): could inhibit the stimulatory effect
- effect on stimulation of TG-HDL2 endocytosis by free-apoA-I (HepG2 cells [1]; higher concentrations of IF1, with free-apoA-I 10 μg/ml, DMEM pH 6.6): completely abolish
- effect on TG-HDL2 internalisation (HDL endocytosis) (HepG2 cells [1]; increasing concentrations of IF1, without free-apoA-I, DMEM pH 6.6, 10 min at 37° C.): dramatic decrease
- influence on cholesterol efflux (HepG2 cells and IHH): no influence
- TG-HDL2 internalisation by perfused rat liver (rat liver; 1 μM IF1, 35 μg/ml 125I-TG-HDL2, 45 minutes at 37° C., means±SEM, n=7): 2.597 ± 1.026 μgTG-HDL2/g of liver
- decrease of TG-HDL2 internalisation by the liver (rat liver; perfused rat liver, 45 min, 1 μM IF1): up to 45%

Molecule: Nc1ncnc2c1ncn2[C@@H]1O[C@H](COP(=O)(O)OP(=O)(O)OP(O)(O)=S)[C@@H](O)[C@H]1O [ATPγS]
- stimulation of TG-HDL2 endocytosis (HepG2 cells [1]; ATPγS at 10 μM): 15%
- effect on TG-HDL2 endocytosis (HepG2 cells [1]; ATPγS at low concentrations): weak effect

Molecule: CSc1nc(N)c2ncn([C@@H]3O[C@H](COP(=O)(O)OP(=O)(O)O)[C@@H](O)[C@H]3O)c2n1 [2MeS-ADP]
- effect on TG-HDL2 endocytosis (HepG2 cells [1]; 2MeS-ADP at 10 to 100 nM): stimulatory effect
- effect on TG-HDL2 endocytosis (HepG2 cells [1]; 2MeS-ADP at higher concentrations (1 μM to 10 μM)): inhibition of endocytosis

Molecule: EGF: known to induce endocytosis of the EGF receptor (NSDSECPLSHDGYCLHDGVCMYIEALDKYACNCVVGYIGERCQYRDLKWWELR; Epidermal growth factor; UniProt P01133 971-1023, looked up)
- effect on internalisation of 125I-TG-HDL2 (HepG2 cells [1]): does not stimulate
- number of EGF-R at the cell surface (EGF receptor): strongly reduces

Molecule: Nc1ncnc2c1ncn2[C@@H]1O[C@H](COP(=O)(O)OP(=O)(O)OP(=O)(O)O)[C@@H](O)[C@H]1O [ATP]
- effect on internalisation of 125I-TG-HDL2 (HepG2 cells [1]): small stimulation
